Data reported in patent US20240277745A1, “PEMAFIBRATE AND/OR TOFOGLIFLOZIN FOR USE IN TREATING LIVER DISEASE” (KOWA COMPANY, LTD, priority 2021, published 2024).

What was measured:
[1] = system: patients with biopsy-confirmed NAFLD and type 2 diabetes; experiment: Example 3 clinical trial: metabolic parameters; format: in vivo, human
Excerpt: (§1) 1. The biopsy consistent with the diagnosis of NAFLD 2. Type 2 diabetes, HbA1c>=7.0% • Hepatic virus infections, autoimmune hepatitis, primary biliary cirrhosis, sclerosing cholangitis, haemochromatosis, antitrypsin deficiency, Wilsons disease, history of parenteral nutrition and use of drugs known to induce steatosis or hepatic injury caused by substance abuse and or the current or past consumption of more than 20 g of alcohol daily • Hypersensitivity to or contraindication of glimepiride and tofogliflozin • None type 2 diabetes • Poorly controlled diabetes • Repeated episodes of unexplained hypoglycemia • Concomitant infection or planned surgery • Poorly controlled hypertension • Severe retinopathy • Malignancy on an active therapeutic regimen or malignancy without complete remission or cure • Severe health problems not suitable for the study • Pregnant or lactating women • Inability to participate in the study as assessed by the investigators. A total of 40 patients were randomly assigned to receive once-daily tofogliflozin at a dose of 20 mg (20 patients) or to receive once-daily glimepiride (20 patients). All 40 patients (100%) completed the trial. Demographic and baseline clinical characteristics except for gender were similar in both groups. The patients were all Japanese and type 2 diabetes. The mean age was 53.9 years, the mean body weight 82.0 kg, the mean Hemoglobin A1c 8.2%, and the mean NAS 4.45. A total of 18 patients (45%) had stage F1 fibrosis, 11 (27.5%) had stage F2, and 5 (12.5%) had stage F3. A total of 40 patients were randomly assigned to receive once-daily tofogliflozin at a dose of 20 mg (20 patients) or to receive once-daily glimepiride (20 patients). All 40 patients (100%) completed the trial. Information for the primary and confirmatory secondary outcomes related to a biopsy at week 48 was available for 39 patients (97.5%). For only one patient with a serious adverse event (2.5%).

[2] = system: patients with biopsy-confirmed NAFLD and type 2 diabetes; experiment: Example 3 clinical trial: liver histology (biopsy) at 48 weeks; format: in vivo, human; conditions: for histologic improvement from baseline to 48 weeks (in words): once-daily treatment
Excerpt: as §1

[3] = system: patients with biopsy-confirmed NAFLD and type 2 diabetes; experiment: Example 3 clinical trial: serum enzyme levels and liver test; format: in vivo, human
Excerpt: as §1

[4] = reported by Ishibashi 2016; cited from earlier work
[5] = system: adults with NAFLD; experiment: Example 1 clinical study: liver stiffness by MRE; format: in vivo, human; conditions: for Liver stiffness by MRE, Responder / Liver stiffness by MRE, percent change from baseline: pemafibrate 0.4 mg/day BID; for Liver stiffness by MRE, mean difference: pemafibrate vs placebo
Protocol: (§2) This was a placebo-controlled, randomized, double-blind, parallel-group, study in adults with NAFLD. Subjects were administered pemafibrate tablets (0.4 mg/day, BID) or placebo tablets for 72 weeks following a screening period of from 2 to 8 weeks. The primary endpoint was percent change from baseline in liver fat content, measured by MRI-PDFF at week 24. The key secondary endpoints were percent changes in liver stiffness and ALT levels from baseline to week 72 and 24, respectively. The study was conducted in compliance with relevant guidelines, GCP guidance, and the Declaration of Helsinki.
(§3) Patients with a hepatic fat fraction ≥10% on MRI-PDFF, liver stiffness (measured using magnetic resonance elastography, MRE)≥2.5 kPa and elevated ALT (>40 U/L for men, >30 U/L for women) were enrolled. Patients were excluded in case of body mass index (BMI)<22 kg/m^2, uncontrolled diabetes (HbA1c≥8%), impaired renal function (estimated glomerular filtration rate, eGFR, <30 mL·min^−1·1.73^−1·m^−2 or on dialysis), cirrhosis, biliary obstruction, or chronic liver diseases other than NAFLD.
(§4) Subjects took their assigned medication (pemafibrate 0.2 mg tablet or placebo) orally, one tablet, twice daily, for 72 weeks. Study visits were set every 4 weeks from the start of treatment to week 24 and every 8 weeks from week 24 onwards. Liver fat content and liver stiffness were measured at screening examinations that took place pre-randomization and subsequently at weeks 0, 24, 48, and 72.
(§5) All imaging assessment procedures were performed blinded. The equipment used in all facilities was standardized to a 3.0 T MR Imaging System (GE Healthcare, Little Chalfont, UK). As an application, IDEAL-IQ for MRI-PDFF and MR-touch for MRE were used. Detailed imaging conditions are described in the “Imaging Procedure Manual” and imaging procedures were standardized throughout all tests. Imaging was performed during fasting (≥4 h postprandial) and the timing of testing (pre-breakfast/post-breakfast to pre-lunch/post-lunch) was unified for each patient throughout the study.
(§6) The primary efficacy endpoint was percent change in hepatic fat content, as measured using MRI-PDFF. Liver stiffness measured using MRE was a secondary endpoint and similarly assessed percent change from baseline values. Other efficacy endpoints included liver function, fibrosis and inflammatory markers, and lipid markers.

[6] = system: adults with NAFLD; experiment: Example 1 clinical study: liver fat content by MRI-PDFF; format: in vivo, human; conditions: for Liver fat content by MRI-PDFF, Responder / Liver fat content by MRI-PDFF, percent change from baseline: pemafibrate 0.4 mg/day BID; for Liver fat content by MRI-PDFF, mean difference: pemafibrate vs placebo
Protocol: as §2, §3, §4, §5, §6

[7] = system: LDL receptor knockout mice and KK-A mice fed with an MCD (methionine-choline-deficient) diet; conditions: cited from earlier work
[8] = system: adults with NAFLD; experiment: Example 1 clinical study: lipids; format: in vivo, human; conditions: for HDL cholesterol, percent change from baseline / LDL cholesterol, percent change from baseline / Non-HDL cholesterol, percent change from baseline / Total cholesterol, percent change from baseline / Triglycerides, percent change from baseline: pemafibrate 0.4 mg/day BID; for HDL cholesterol, mean difference / LDL cholesterol, mean difference / Non-HDL cholesterol, mean difference / Total cholesterol, mean difference / Triglycerides, mean difference: pemafibrate vs placebo
Protocol: as §2, §3, §4, §6

[9] = system: adults with NAFLD; experiment: Example 1 clinical study: liver function (ALT, AST); format: in vivo, human; conditions: for ALT, percent change from baseline / AST, percent change from baseline: pemafibrate 0.4 mg/day BID; for ALT, mean difference / AST, mean difference: pemafibrate vs placebo
Protocol: as §2, §3, §4, §6

[10] = week 48, P<0.001 for the comparison with glimepiride
[11] = baseline to 48 weeks, tofogliflozin 20 mg once daily

CCc1ccc(Cc2ccc3c(c2)[C@]2(OC3)OC(CO)[C@@H](O)C(O)C2O)cc1 (stereo in doubt) [tofogliflozin, 6-((4-ethylphenyl)methyl)-3′,4′,5′,6′-tetrahydro-6′-(hydroxymethyl)spiro(isobenzofuran-1(3H),2′-(2H)pyran)-3′,4′,5′-triol]
BMI (in words) ([1]; tofogliflozin 20 mg once daily): significant reduction
percentage of body fat (in words) ([1]; tofogliflozin 20 mg once daily): significant reduction
mean body weight decrease [1, 10]: 4.8 kg
NAS compared with baseline values (in words) ([2]; 48 weeks): improved significantly
fibrosis score (in words) ([2]; 48 weeks): significantly reduced
lobular inflammation score (in words) ([2]; 48 weeks): significantly reduced
mean ballooning scores (in words) ([2]; 48 weeks): significantly reduced
mean steatosis scores (in words) ([2]; 48 weeks): significantly reduced
percentage of steatosis (in words) ([2]; 48 weeks): significantly reduced
ratio of the patients with improvement in ballooning necrosis [2, 11]: 55%
ratio of the patients with improvement in lobular inflammation [2, 11]: 50%
ratio of the patients with improvement in steatosis [2, 11]: 65%
fibrosis scores improved ([2]; before and after treatment, 48 weeks, P=0.001): 60%
histologic improvement from baseline to 48 weeks (in words) ([2]; 48 weeks): significant histologic improvements from baseline to 48 weeks in all variables
FIB-4 index (in words) ([3]; tofogliflozin 20 mg once daily): significantly reduced
alanine aminotransferase levels (in words) ([3]; tofogliflozin 20 mg once daily): early and highly significant decrease
aspartate aminotransferase levels (in words) ([3]; tofogliflozin 20 mg once daily): early and highly significant decrease
gamma-glutamyl transferase, mean decrease [3, 10]: 23.8 IU/L

CCC1=C(C)CN(C(=O)NCCc2ccc(S(=O)(=O)NC(=O)N[C@H]3CC[C@H](C)CC3)cc2)C1=O [glimepiride]
NAS compared with baseline values (in words) ([2]; 48 weeks): improved significantly
mean ballooning scores (in words) ([2]; 48 weeks): significantly reduced
histologic improvement from baseline to 48 weeks (in words) ([2]; 48 weeks): the only histologic improvement from baseline to 48 weeks was a reduction in ballooning necrosis

(R)-2-[3-[[N-(benzoxazol-2-yl)-N-3-(4-methoxyphenoxy)propyl]aminomethyl]phenoxy]butyric acid [Pemafibrate]
ALT concentrations (in words) [4]: much more modest decrease
LDL cholesterol (in words) [4]: increase
total cholesterol (in words) [4]: modest decrease
liver stiffness when measured by MRE (in words) ([5]; Example 1 study, summary): significant improvements
Liver stiffness by MRE, Responder ([5]; Week 24): 19.0 (11) %
Liver stiffness by MRE, percent change from baseline ([5]; Week 24): −5.03%
Liver stiffness by MRE, mean difference ([5]; Week 24): −4.38%
Liver stiffness by MRE, Responder ([5]; Week 48): 37.9 (22) %
Liver stiffness by MRE, percent change from baseline ([5]; Week 48): −9.01%
Liver stiffness by MRE, mean difference ([5]; Week 48): −5.68%
Liver stiffness by MRE, Responder ([5]; Week 72): 25.9 (15) %
Liver stiffness by MRE, percent change from baseline ([5]; Week 72): −7.27%
Liver stiffness by MRE, mean difference ([5]; Week 72): −6.15%
Liver fat content by MRI-PDFF, Responder ([6]; Week 24): 20.7 (12) %
Liver fat content by MRI-PDFF, percent change from baseline ([6]; Week 24): −5.28%
Liver fat content by MRI-PDFF, mean difference ([6]; Week 24): −1.04%
Liver fat content by MRI-PDFF, Responder ([6]; Week 48): 10.3 (6) %
Liver fat content by MRI-PDFF, percent change from baseline ([6]; Week 48): 0.50%
Liver fat content by MRI-PDFF, mean difference ([6]; Week 48): 1.03%
Liver fat content by MRI-PDFF, Responder ([6]; Week 72): 22.4 (13) %
Liver fat content by MRI-PDFF, percent change from baseline ([6]; Week 72): −4.88%
Liver fat content by MRI-PDFF, mean difference ([6]; Week 72): −5.10%
ballooning of hepatocytes, fat deposition, number of Kupffer cells (in words) [7]: suppresses ballooning of hepatocytes and fat deposition and reduces the number of Kupffer cells
HDL cholesterol (in words) ([8]; Example 1 study, summary): significant reductions
LDL cholesterol (in words) ([8]; Example 1 study, summary): significant reductions
total cholesterol (in words) ([8]; Example 1 study, summary): significant reductions
HDL cholesterol, percent change from baseline ([8]; Week 24): −1.68%
LDL cholesterol, percent change from baseline ([8]; Week 24): −14.72%
Non-HDL cholesterol, percent change from baseline ([8]; Week 24): −13.82%
Total cholesterol, percent change from baseline ([8]; Week 24): −11.19%
Triglycerides, percent change from baseline ([8]; Week 24): −34.60%
HDL cholesterol, mean difference ([8]; Week 24): −7.57%
LDL cholesterol, mean difference ([8]; Week 24): −13.66%
Non-HDL cholesterol, mean difference ([8]; Week 24): −12.82%
Total cholesterol, mean difference ([8]; Week 24): −11.55%
Triglycerides, mean difference ([8]; Week 24): −31.11%
HDL cholesterol, percent change from baseline ([8]; Week 48): −6.40%
LDL cholesterol, percent change from baseline ([8]; Week 48): −14.22%
Non-HDL cholesterol, percent change from baseline ([8]; Week 48): −12.95%
Total cholesterol, percent change from baseline ([8]; Week 48): −11.55%
Triglycerides, percent change from baseline ([8]; Week 48): −27.11%
HDL cholesterol, mean difference ([8]; Week 48): −10.24%
LDL cholesterol, mean difference ([8]; Week 48): −16.37%
Non-HDL cholesterol, mean difference ([8]; Week 48): −14.24%
Total cholesterol, mean difference ([8]; Week 48): −13.19%
Triglycerides, mean difference ([8]; Week 48): −25.77%
HDL cholesterol, percent change from baseline ([8]; Week 72): −7.38%
LDL cholesterol, percent change from baseline ([8]; Week 72): −12.48%
Non-HDL cholesterol, percent change from baseline ([8]; Week 72): −11.92%
Total cholesterol, percent change from baseline ([8]; Week 72): −11.12%
Triglycerides, percent change from baseline ([8]; Week 72): −31.55%
HDL cholesterol, mean difference ([8]; Week 72): −11.86%
LDL cholesterol, mean difference ([8]; Week 72): −15.14%
Non-HDL cholesterol, mean difference ([8]; Week 72): −15.77%
Total cholesterol, mean difference ([8]; Week 72): −14.86%
Triglycerides, mean difference ([8]; Week 72): −32.67%
liver function as measured by ALT (in words) ([9]; Example 1 study, summary): significant improvements
ALT, percent change from baseline ([9]; Week 24): −39.53%
AST, percent change from baseline ([9]; Week 24): −9.21%
ALT, mean difference ([9]; Week 24): −27.08%
AST, mean difference ([9]; Week 24): −2.69%
ALT, percent change from baseline ([9]; Week 48): −42.53%
AST, percent change from baseline ([9]; Week 48): −9.75%
ALT, mean difference ([9]; Week 48): −26.75%
AST, mean difference ([9]; Week 48): −0.18%
ALT, percent change from baseline ([9]; Week 72): −43.84%
AST, percent change from baseline ([9]; Week 72): −9.61%
ALT, mean difference ([9]; Week 72): −33.60%
AST, mean difference ([9]; Week 72): −4.48%
